Literature values as cited in patent US20100021530A1, “ENHANCED TRANS-KERATIN DRUG DELIVERY” (Innovation Biomedical Devices, Inc., priority 2008, published 2010).

Test system: Tinea unguium or onychomycosis (nail fungus)
Settings: topical, after a year of treatment, at best

SMILES: Cc1cc(C2CCCCC2)n(O)c(=O)c1 [ciclopirox]
- cure rate: around 20%
